Assay results reported in patent EP2782585B1, “ANTIVIRAL FORMULATIONS” (3B Pharmaceuticals, Inc., priority 2011, dated 2013).

Columns and labels:
HSV-1 = test: In vitro assay for anti-HSV-1 mRNA activity (QuantiGene Plex 2.0 bDNA) in infected primary endothelial cells; type: cell-based, HSV type 1; conditions: best-fit value, primary Adult Human Dermal Microvascular Endothelial Cells, overnight incubation; for IC50: Human alphaherpesvirus 1, Endothelial cell, HSV-1 mRNA; for LogIC50 / HillSlope: variable slope fit; for LogIC50: concentrations in µM
Experimental: (§1) In vitro assays for anti-HSV-1 and anti-HSV-2 mRNA activity are described in Example 1. Confluent Vero cell monolayers were infected with HSV type 1 or HSV type 2 at a multiplicity of infection of 10 and the resultant virus was used to infect primary Adult Human Dermal Microvascular Endothelial Cells for 1 hour; the supernatant was replaced with fresh culture media and then incubated overnight in the presence of various concentrations of acyclovir, 2-deoxy-D-glucose or an equimolar combination of the two compounds. After overnight incubation, the cells were harvested, lysed, and subjected to QuantiGene Plex 2.0 assay (Panomics, Inc., Fremont, CA) for quantitative assay of HSV-1 and HSV-2 mRNA. The QuantiGene Plex 2.0 assay combines branched DNA (bDNA) signal amplification and multi-analyte profiling beads (xMAP®) technologies to enable the detection and quantitation of multiple mRNA targets simultaneously. Briefly, confluent Vero cell monolayers were infected with HSV type 1 or HSV type 2 at a multiplicity of infection of 10 and the resultant virus was used to infect primary Adult Human Dermal Microvascular Endothelial Cells for 1 hour and then the supernatant was replaced with fresh culture media and then incubated overnight in the presence of various concentrations of acyclovir, 2-deoxy-D-glucose or an equimolar combination of the two compounds. Generally, this assay is considered to be a more sensitive and specific assay (bDNA) for the final readout when compared to an ELISA. The ELISA method while easier, can lack specificity to determine the difference between HSV1 and HSV2. The bDNA assay is a hybridization-based method of target-specific RNA quantitation that amplifies signal rather than target RNA, using labeled DNA probes. The QuantiGene Plex 2.0 system utilizes fluorescent microspheres (Capture Beads) as a support to capture specific RNA molecules. The ability to quantify multiple target-specific RNA molecules in a single sample lies in the design of the Probe Sets. For each RNA molecule of interest, an oligonucleotide Probe Set containing three types of synthetic probes, Capture Extenders (CEs), Label Extenders (LEs), and Blockers (BLs) that hybridize and span contiguous sequences of the target RNA, is provided. The CEs discriminate among the different Capture Beads within the bead array while capturing, via cooperative hybridization, the target RNA. Signal amplification is mediated by DNA amplification molecules that hybridize to the tails of the LEs. Each amplification unit contains multiple hybridization sites for biotinylated Label Probes that bind Streptavidin-conjugated R-Phycoerythrin (SAPE). The resulting fluorescence signal associated with individual Capture Beads is read on a Luminex flow cytometer. Signal is reported as median fluorescence intensity (MFI) and is proportional to the number of target RNA molecules present in the sample. All compounds were run in triplicate for each concentration. Concentrations are expressed in micromolar (µM) concentrations. The IC50 (the drug concentration that reduces the number of virally infected cells by 50%) were determined by plotting the reduction in fluorescence (RLU) versus the drug concentration using Graph Pad Prism software. Specifically, the variable slope model was used to calculate the IC50s with the formula "Y=Bottom + (Top-Bottom)/(1+10^((LogIC50-X)*HillSlope))" using Graph Pad Prism software. The data is shown graphically in Figures 1 and 2. The error bars represent the standard error of the mean (SEM). Table 1. IC50 of Acyclovir and/or 2-Deoxy-D-glucose against HSV-1. […]

[1] = local application compared with oral; cited from earlier work
HSV-2 = test: In vitro assay for anti-HSV-2 mRNA activity (QuantiGene Plex 2.0 bDNA) in infected primary endothelial cells; type: cell-based, HSV type 2; conditions: best-fit value, primary Adult Human Dermal Microvascular Endothelial Cells, overnight incubation; for IC50: Human alphaherpesvirus 2, Endothelial cell, HSV-2 mRNA; for LogIC50 / HillSlope: variable slope fit; for LogIC50: concentrations in µM
Experimental: as §1

SMILES | IC50 (HSV-1) | LogIC50 (HSV-1) | HillSlope (HSV-1) | drug concentration in the skin after local application versus given orally [1] | IC50 (HSV-2) | LogIC50 (HSV-2) | HillSlope (HSV-2)
Nc1nc2c(ncn2COCCO)c(=O)[nH]1 [Acyclovir, 9-(2-hydroxyethoxymethyl)guanine] | 1.78 µM | 0.2509 | -1.108 | 2-3 times lower | 1.91 µM | 0.2805 | -1.113
O=CC[C@@H](O)[C@H](O)[C@H](O)CO [2 Deoxy D glucose, 2-deoxy-D-glucose] | 20.9 µM | 1.32 | -2.395 | – | 8 µM | 0.9029 | -3.957
